Results as given in patent US20080033040A1, “Methods And Compositions For Screening Involving Endothelial Cells Under Shearing Conditions” (priority 2004, published 2008).
Values joined by “and” are separate entries in the source; they are usually repeats but may differ in a detail not shown here. Equal values may be shown once. Read-outs that look alike come from different tables or passages of the source.

Experiments:
PAEC [1] = conditions: 500 μM H2O2, 1 hour
Description: PAEC were cultured and infected as previously described. Forty-eight hours after infection, PAEC were incubated for 1 hour under 500 μM H2O2 in serum-free M199; control groups were incubated in serum-free M199. […] After incubation, 3 μM propidium iodide (PI) was added to each sample and incubated for 8 minutes. Samples were then washed with serum-free M199 and imaged at an exposure of 2500 ms. All fluorescent images were acquired in phenyl-red free media.

PAEC [2] = assay: Determination of intracellular superoxide by DHE, static culture (Example 2); format: cell-based, Porcine; conditions: for % of cells with fluorescent nuclei, hydrogen peroxide exposed sample with inhibitor: 60 μM H2O2; for % of cells with fluorescent nuclei, hydrogen peroxide exposed sample with inhibitor / % cells with fluorescent nuclei, control sample cultured with inhibitor: apocynin 0.25 μM; for % cells with fluorescent nuclei, control sample cultured with inhibitor: no H2O2
Description: Adenoviral-mediated gene transfer was conducted by infection of endothelial cells (85-95% confluence, University of Iowa Cardiovascular Research Center Cell Culture Facility) as previously described (Fang et al., 1998). Ad5CMVSOD2, Ad5CMVeNOS, and Ad5CMVeGFP were acquired from the University of Iowa Gene Transfer Vector Core (REF); Ad5CMVeGFP was used as a negative control. Porcine aortic endothelial cells were incubated with 125 PFU/cell MnSOD/eNOS/eGFP adenovirus in serum-free M199. To improve the efficiency of adenoviral uptake, the adenoviral stock was incubated for 30 minutes prior to addition to cell cultures (Kossila et al., 2002). Infected PAEC were incubated under standard conditions. After 3 hours, the virus-containing solution was removed, samples were washed with serum-free M199, and M199 supplemented with 1% Penicillin-Streptomycin and 2% FBS was added. After 45 hours of incubation (48 hours after initiation of infection) cells were prepared for experimentation.
Incubation continued for an additional 30 minutes with 2 μM dihydroethidium (Miller et al., 1998; Carter et al., 1994) (DHE, Molecular Probes). […] Images were captured using a Zeiss Axiovert S100 fluorescent microscope. Images were collected at a standard exposure of 4500 ms.
Image analysis was conducted with Slidebook 4 Imaging Software (company). Statistical analyses were conducted using the Student's t-Test assuming unequal variance. Values are reported as mean±standard error of the mean (SEM).

PAEC [3] = assay: Nitric oxide production (Greiss assay, DAF-FM diacetate staining); format: cell-based, Porcine; conditions: H2O2 exposure, limited length of experimentation
Description: Nitric oxide production was quantified via Greiss assay and intracellular staining with DAF-FM diacetate.

[4] = tested on: Porcine aortic endothelial cells (PAEC); conditions: static
[5] = tested on: Porcine aortic endothelial cells (PAEC); conditions: shear 24.4 ml/min (2.2 dynes/cm2), 100 μM H2O2, 1.5 hours
Description: The flow system provided for oscillatory, laminar flow across the sample. […] Due to these factors, an increase in concentration to 100 μM H2O2 was necessary for experimentation under shearing conditions.
An Immunetics flow cell (Li et al., 1996) was prepared by first flushing the fluid path with deionized water and then phenyl red free M199. After flushing, 50 ml of the circulating medium was added and allowed to perfuse for 5 minutes while warming to 37° C. PAEC were then placed in the flow cell and the flow cell was secured to the microscope stage. Endothelial cells were maintained at 37° C. by fluid flow through a water bath (Precision, Winchester, Va.), at a flow rate of 24.4 ml/min (2.2 dynes/cm2), for 1.5 hours under 100 μM H2O2 in circulating medium. The PAEC not exposed to H2O2 were subjected to the same flow rate in serum free and phenyl red free M199 without H2O2. […] The experiment was conducted under constant imaging, with images being captured at 0, 15, 30, 60, and 90 minutes. […] All fluorescent images were acquired with phenyl red free media to eliminate interference of phenyl red and FBS in fluorescent imaging.

PAEC [6] = format: cell-based, Porcine
Description: An Immunetics cell adhesion chamber (Cambridge, Mass.) was utilized to determine PAEC behavior under shearing conditions. […] PAEC were exposed to a constant flow rate of 24.4 ml/min (2.2 dynes/cm^2) for 1.5 hours. Maintenance of PAEC at 37° C. was achieved by using a fluid reservoir contained in a constant temperature water bath (Precision). Challenged PAEC were exposed to 100 μM H2O2 in serum-free and phenyl red free M199; control PAEC were exposed to serum-free and phenyl red free M199 without H2O2.
After 1 hour of incubation, 2 μM dihydroethidium was added to the media reservoir.
Hydroethidium was used to examine superoxide production of infected and non-infected PAEC under H2O2 induced oxidative stress. PAEC on glass slides were subjected to laminar flow at 24.4 ml/min (2 dynes/cm^2). The circulating fluid contained 2 μM dihydroethidium as a marker for superoxide production.

PAEC [7] = assay: L-NAME inhibition of eNOS, superoxide by DHE, static; format: cell-based, Porcine
Description: In order to ascertain the role of eNOS in endothelial cell superoxide production, the presence of superoxide was probed in the presence of L-NAME. […] After incubation, 2 μM DHE was added to each sample and incubated for 30 minutes. […] Image analysis was conducted with Slidebook 4 Imaging Software (company). Statistical analyses were conducted using the Student's t-Test assuming unequal variance. Values are reported as mean±standard error of the mean (SEM).

PAEC [8] = assay: Determination of eNOS couple state with ascorbic acid, superoxide by DHE, static; format: cell-based, Porcine; conditions: 60 μM H2O2, 1 mM ascorbic acid
Description: In order to ascertain the role of the coupled state of eNOS in endothelial cell superoxide production, the presence of superoxide was probed in the presence of ascorbic acid. […] After incubation, 2 μM DHE was added to each sample and incubated for 30 minutes.

OO [H2O2, hydrogen peroxide]
percent of cells with ruptured cellular membranes (PAEC [1]): ten
percent propidium iodide positive cells, challenged PAEC (PAEC [1]): more than ninety
fold increase in percent of superoxide producing cells, control vs H2O2 stressed (PAEC [2]; static culture): 10 fold
% of cells having fluorescent nuclei (PAEC [2]; static, H2O2 challenged PAEC (60 μM H2O2)): 51.8±1.1%
NO production (DAF-AM acetate intracellular staining) (PAEC [3]): no significant increases
% of PAEC exposed to H2O2 demonstrating intracellular superoxide ([4]; 3 μM H2O2, 1.5 hour exposure, 2.0 μM DHE): 1.2±0.2%
% of PAEC found to produce intracellular superoxide ([4]; 30 μM H2O2, 1.5 hour exposure, 2.0 μM DHE): 77.1±5.5%
% of PAEC exhibiting fluorescent nuclei ([4]; 1 mM H2O2): 76.1±6.8%
cell membrane integrity of PAEC ([4]; increasing H2O2 concentration, most notably at 1 mM): loss in cell membrane integrity in a dose dependant manner
% of PAEC exposed to H2O2 demonstrating intracellular superoxide [5]: 49.5±3.3%
% of cells with fluorescent nuclei, challenged PAEC (non-infected) (PAEC [6]): 50.3±4.1%
fold increase in percent of superoxide producing cells, non-infected control vs H2O2 stressed (PAEC [6]): 30 fold
% cells with fluorescent nuclei, challenged non-inhibited group (PAEC [7]; 60 μM H2O2, no L-NAME): 23.8±3.8%

COC(=O)[C@@H](N)CCCNC(=N)N[N+](=O)[O-] [L-NAME, N^G-nitro-L-arginine methyl ester]
% cells with fluorescent nuclei, control with eNOS inhibition (PAEC [7]; no H2O2, 1 mM L-NAME): 2.2±0.5% and 2.9±0.3%

Oc1ncnc2[nH]ncc12 [allopurinol]
% of cells with fluorescent nuclei, hydrogen peroxide exposed sample with inhibitor (PAEC [2]; static): 35.6±1.3%
% cells with fluorescent nuclei, control sample cultured with inhibitor (PAEC [2]; static): 4.1±0.4%

COc1cc(C(C)=O)ccc1O [apocynin, Apocynin]
effect on superoxide production (PAEC [2]; apocynin 0.5 mM): minimal effects
% of cells with fluorescent nuclei, hydrogen peroxide exposed sample with inhibitor (PAEC [2]; static): 35.1±2.0%
% cells with fluorescent nuclei, control sample cultured with inhibitor (PAEC [2]; static): 14.2±1.3%

O=C1O[C@H]([C@@H](O)CO)C(O)=C1O [ascorbic acid, Ascorbic Acid]
superoxide production in presence of ascorbic acid (PAEC [8]): almost completely inhibited

CC(C(=O)O)c1ccc(-c2ccccc2)c(F)c1 (stereo not shown) [flurbiprofen]
% of cells with fluorescent nuclei, hydrogen peroxide exposed sample with inhibitor (PAEC [2]; static): 46.8±1.4%
% cells with fluorescent nuclei, control sample cultured with inhibitor (PAEC [2]; static): 3.9±0.4%
